According to patent US20170291905A1, “ARGININE […] INHIBITORS AND USES THEREOF” (Epizyme, Inc., priority 2014, published 2017):

These compounds were tested against T1, full-length human PRMT1 isoform 1 (GST-tagged) (Homo sapiens, UniProt Q99873) (assay: PRMT1 biochemical assay (3H-SAM Flashplate, histone H4 36-50 peptide)). Conditions: 0.5 nM PRMT1, 30 min preincubation, 20 nM peptide.
T1 construct: GST-tagged PRMT1 was eluted with 50 mM Tris, 2 mM glutathione, pH 7.8, dialysed in buffer A and concentrated; made in house; host or cells: High Five insect cells (baculovirus)
Description: S-adenosylmethionine (SAM), S-adenosylhomocysteine (SAH), bicine, Tween20, dimethylsulfoxide (DMSO), bovine skin gelatin (BSG), and Tris(2-carboxyethyl)phosphine hydrochloride solution (TCEP) were purchased from Sigma-Aldrich at the highest level of purity possible. ^3H-SAM was purchase from American Radiolabeled Chemicals with a specific activity of 80 Ci/mmol. 384-well streptavidin Flashplates were purchased from PerkinElmer.
Peptide representative of human histone H4 residues 36-50 was synthesized with an N-terminal linker-affinity tag motif and a C-terminal amide cap by 21st Century Biochemicals. The peptide was purified by high-performance liquid chromatography (HPLC) to greater than 95% purity and confirmed by liquid chromatography mass spectrometry (LC-MS). The sequence was Biot-Ahx-[…]-amide (SEQ ID NO.:1).
Full-length human PRMT1 isoform 1 (NM_001536.5) transcript clone was amplified from an HEK 293 cDNA library, incorporating flanking 5′ sequence encoding a FLAG tag ([…]) (SEQ ID NO.:2) fused directly to Met 1 of PRMT1. The amplified gene was subcloned into pFastBacI (Life Technologies) modified to encode an N-terminal GST tag and a TEV cleavage sequence
Recombinant baculovirus were generated according to Bac-to-Bac kit instructions (Life Technologies). Protein over-expression was accomplished by infecting exponentially growing High Five insect cell culture at 1.5×10^6 cell/ml with 1:100 ratio of virus. Infections were carried out at 27° C. for 48 hours, harvested by centrifugation, and stored at −80° C. for purification.
GST-tagged PRMT1 was eluted with 50 mM Tris, 2 mM glutathione, pH 7.8, dialysed in buffer A and concentrated to 1 mg/mL. The purity of recovered protein was 73%. Reference: Wasilko, D. J. and S. E. Lee: “TIPS: titerless infected-cells preservation and scale-up” Bioprocess J., 5 (2006), pp. 29-32.
General Procedure for PRMT1 Enzyme Assays on Peptide Substrates.
The assays were all performed in a buffer consisting of 20 mM Bicine (pH=7.6), 1 mM TCEP, 0.005% BSG, and 0.002% Tween 20, prepared on the day of use. Compounds in 100% DMSO (1 ul) were spotted into a polypropylene 384-well V-bottom plates (Greiner) using a Platemate Plus outfitted with a 384-channel head (Thermo Scientific). DMSO (1 ul) was added to Columns 11, 12, 23, 24, rows A-H for the maximum signal control and 1 ul of SAH, a known product and inhibitor of PRMT1, was added to columns 11, 12, 23, 24, rows I-P for the minimum signal control. A cocktail (40 ul) containing the PRMT1 enzyme was added by Multidrop Combi (Thermo-Fisher). The compounds were allowed to incubate with PRMT1 for 30 min at room temperature, then a cocktail (10 ul) containing SAM and peptide was added to initiate the reaction (final volume=51 ul). The final concentrations of the components were as follows: PRMT1 was 0.5 nM, ^3H-SAM was 200 nM, non-radiolabeled SAM was 1.5 uM, peptide was 20 nM, SAH in the minimum signal control wells was 1 mM, and the DMSO concentration was 2%. The assays were stopped by the addition of non-radiolabeled SAM (10 ul) to a final concentration of 300 uM, which dilutes the ^3H-SAM to a level where its incorporation into the peptide substrate is no longer detectable. 50 ul of the reaction in the 384-well polypropylene plate was then transferred to a 384-well Flashplate and the biotinylated peptides were allowed to bind to the streptavidin surface for at least 1 hour before being washed once with 0.1% Tween20 in a Biotek ELx405 plate washer. The plates were then read in a PerkinElmer TopCount plate reader to measure the quantity of ^3H-labeled peptide bound to the Flashplate surface, measured as disintegrations per minute (dpm) or alternatively, referred to as counts per minute (cpm).
Where dpm=disintegrations per minute, cmpd=signal in assay well, and min and max are the respective minimum and maximum signal controls. […]

T1 sequence (Q99873 with tags, fused parts or gaps): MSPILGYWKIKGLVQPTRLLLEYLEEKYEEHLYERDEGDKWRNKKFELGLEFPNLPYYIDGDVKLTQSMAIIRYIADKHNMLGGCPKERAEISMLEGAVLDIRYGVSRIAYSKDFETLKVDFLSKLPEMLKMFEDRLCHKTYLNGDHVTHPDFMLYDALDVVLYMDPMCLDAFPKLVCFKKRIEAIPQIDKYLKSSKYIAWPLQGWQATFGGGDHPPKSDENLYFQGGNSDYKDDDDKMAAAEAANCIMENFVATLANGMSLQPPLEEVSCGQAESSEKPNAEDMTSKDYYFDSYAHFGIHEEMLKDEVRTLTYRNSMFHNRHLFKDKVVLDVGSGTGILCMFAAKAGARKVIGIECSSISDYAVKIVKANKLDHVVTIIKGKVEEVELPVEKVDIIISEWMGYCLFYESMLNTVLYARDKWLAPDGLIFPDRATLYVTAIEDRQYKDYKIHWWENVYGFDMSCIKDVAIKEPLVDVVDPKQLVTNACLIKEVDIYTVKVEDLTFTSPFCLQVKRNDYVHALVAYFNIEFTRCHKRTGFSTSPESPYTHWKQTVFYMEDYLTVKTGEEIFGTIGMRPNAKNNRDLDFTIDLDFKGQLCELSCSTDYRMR

| SMILES | IC50 [nM] |
| --- | --- |
| CNCCN(C)Cc1c[nH]nc1C1CCC(C)(C)[C@H](COCCOC)C1 (stereo partly drawn) [compound 35, {2-[({3-[(3R)-3-[(2-methoxyethoxy)methyl]-4,4-dimethylcyclohexyl]-1H-pyrazol-4-yl}methyl)(methyl)amino]ethyl}(methyl)amine] | 51.9 |
| CCCOCC1(COCCC)CCC(c2n[nH]cc2CN(C)CCNC)CC1 [compound 36, N^1-((3-(4,4-bis(propoxymethyl)cyclohexyl)-1H-pyrazol-4-yl)methyl)-N^1,N^2-dimethylethane-1,2-diamine] | 7.93 |
| CC[C@]12CC[C@](CC)(C[C@H](c3n[nH]cc3CN(C)CCNC)C1)O2 [compound 37, N1-((3-((1R,3r,5S)-1,5-diethyl-8-oxabicyclo[3.2.1]octan-3-yl)-1H-pyrazol-4-yl)methyl)-N1,N2-dimethylethane-1,2-diamine] | 25.2 |
| CC[C@]12CC[C@](CC)(C[C@@H](c3n[nH]cc3CN(C)CCNC)C1)O2 [compound 38, N1-((3-((1R,3s,5S)-1,5-diethyl-8-oxabicyclo[3.2.1]octan-3-yl)-1H-pyrazol-4-yl)methyl)-N1,N2-dimethylethane-1,2-diamine] | 111 |
| CNCCN(C)Cc1ccnn1[C@H]1CC[C@]2(CC1)CC(C)(C)CO2 [compound 50, N1-((1-((5r,8r)-3,3-dimethyl-1-oxaspiro[4.5]decan-8-yl)-1H-pyrazol-5-yl)methyl)-N1,N2-dimethylethane-1,2-diamine] | 20.9 |
| Cc1[nH]nc([C@H]2CC[C@@]3(CC2)CC(C)(C)CO3)c1CN(C)CCN [compound 51, N1-((3-((5s,8s)-3,3-dimethyl-1-oxaspiro[4.5]decan-8-yl)-5-methyl-1H-pyrazol-4-yl)methyl)-N1-methylethane-1,2-diamine] | 12 |
| Cc1[nH]nc([C@H]2CC[C@]3(CC2)CC(C)(C)CO3)c1CN(C)CCN [compound 52, N1-((3-((5r,8r)-3,3-dimethyl-1-oxaspiro[4.5]decan-8-yl)-5-methyl-1H-pyrazol-4-yl)methyl)-N1-methylethane-1,2-diamine] | 16 |
| CNCCN(C)Cc1c(C)[nH]nc1[C@H]1CC[C@@]2(CC1)CC(C)(C)CO2 [compound 57] | 25.8 |
| CNCCN(C)Cc1c(C)[nH]nc1[C@H]1CC[C@]2(CC1)CC(C)(C)CO2 [compound 58] | 38.7 |
| Cc1[nH]nc(C2CCC3(CC2)CC(C)(C)CO3)c1CN(C)CCN (centres unmarked) [compound 59] | 11.4 |
| CCOCC1(COCC)CC=C(c2n[nH]cc2CN(C)CCNC)CC1 [compound 60] | 14.9 |
| CNCCN(C)Cc1scnc1[C@H]1CC[C@@]2(CC1)CC(C)(C)CO2 [compound 62] | 4.18 |
| CNCCN(C)Cc1nn(C)nc1[C@H]1CC[C@@]2(CC1)CC(C)(C)CO2 [compound 64] | 31.9 |
| CNCCN(C)Cc1cnnn1[C@H]1CC[C@@]2(CC1)CC(C)(C)CO2 [compound 65] | > 10000 |
| CNCCN(C)Cc1nn[nH]c1[C@H]1CC[C@@]2(CC1)CC(C)(C)CO2 [compound 67] | 11.5 |
| CNCCN(C)Cc1nncn1[C@H]1CC[C@@]2(CC1)CC(C)(C)CO2 [compound 68] | 4330 |
| CNCCN(C)Cc1nccn1[C@H]1CC[C@@]2(CC1)CC(C)(C)CO2 [compound 69] | 255 |
| CNCCN(C)Cc1nnc(C)n1[C@H]1CC[C@@]2(CC1)CC(C)(C)CO2 [compound 71] | 5100 |
| CNCCN(C)Cc1cncn1[C@H]1CC[C@@]2(CC1)CC(C)(C)CO2 [compound 76] | 14.6 |
| CNCCN(C)Cc1nc(C)sc1[C@H]1CC[C@@]2(CC1)CC(C)(C)CO2 [compound 77] | 22.9 |
| CNCCN(C)Cc1sc(C)nc1[C@H]1CC[C@@]2(CC1)CC(C)(C)CO2 [compound 78] | 23 |
| CN(CCN)Cc1nn(C)cc1[C@H]1CC[C@@]2(CC1)CC(C)(C)CO2 [compound 80] | 5.83 |
| CNCCN(C)Cc1nn(C)cc1[C@H]1CC[C@@]2(CC1)CC(C)(C)CO2 [compound 81] | 22.8 |
| CNCCN(C)Cc1ncsc1[C@H]1CC[C@@]2(CC1)CC(C)(C)CO2 [compound 83] | 14.8 |
| CNCCN(C)Cc1scnc1[C@H]1CC[C@]2(CC1)CC(C)(C)CO2 [compound 84] | 14 |

| SMILES | IC50 [nM] |
| --- | --- |
| CNCCN(C)Cc1nn(C)nc1C1CCC2(CC1)CC(C)(C)CO2 (centres unmarked) [compound 86] | 50.1 |
| CNCCN(C)Cc1nn[nH]c1[C@H]1CC[C@]2(CC1)CC(C)(C)CO2 [compound 89] | 59.7 |
| CNCCN(C)Cc1nncn1[C@H]1CC[C@]2(CC1)CC(C)(C)CO2 [compound 90] | > 10000 |
| CNCCN(C)Cc1nccn1[C@H]1CC[C@]2(CC1)CC(C)(C)CO2 [compound 91] | 1020 |
| CNCCN(C)Cc1nnc(C)n1[C@H]1CC[C@]2(CC1)CC(C)(C)CO2 [compound 93] | > 10000 |
| CNCCN(C)Cc1c(Cl)ncn1[C@H]1CC[C@]2(CC1)CC(C)(C)CO2 [compound 97] | 318 |
| CNCCN(C)Cc1cncn1[C@H]1CC[C@]2(CC1)CC(C)(C)CO2 [compound 98] | 4360 |
| CNCCN(C)Cc1nc(C)sc1[C@H]1CC[C@]2(CC1)CC(C)(C)CO2 [compound 99] | 35.6 |
| CNCCN(C)Cc1sc(C)nc1[C@H]1CC[C@]2(CC1)CC(C)(C)CO2 [compound 100] | 33.5 |
| CN(CCN)Cc1nn(C)cc1[C@H]1CC[C@]2(CC1)CC(C)(C)CO2 [compound 102] | 21.2 |
| CNCCN(C)Cc1nn(C)cc1[C@H]1CC[C@]2(CC1)CC(C)(C)CO2 [compound 103] | 37.2 |
| CN(CCN)Cc1c[nH]nc1[C@H]1CC[C@@]2(CC1)CC(C)(C)CO2 [compound 105] | 5.68 |
| CN(CCN)Cc1c[nH]nc1[C@H]1CC[C@]2(CC1)CC(C)(C)CO2 [compound 106] | 45.3 |
| CNCCN(C)Cc1c(C)noc1[C@H]1CC[C@@]2(CC1)CC(C)(C)CO2 [compound 113] | 79.5 |
| CNCCN(C)Cc1c(C)noc1[C@H]1CC[C@]2(CC1)CC(C)(C)CO2 [compound 114] | 121 |
| CNCCN(C)Cc1n[nH]cc1[C@H]1CC[C@@]2(CC1)CC(C)(C)CO2 [compound 115] | 11.5 |
| CNCCN(C)Cc1n[nH]cc1[C@H]1CC[C@]2(CC1)CC(C)(C)CO2 [compound 116] | 22.9 |
| CNCCN(C)Cc1nocc1[C@H]1CC[C@@]2(CC1)CC(C)(C)CO2 [compound 117] | 51.3 |
| CNCCN(C)Cc1nocc1[C@H]1CC[C@]2(CC1)CC(C)(C)CO2 [compound 118] | 409 |
| CCOCC1(COCC)CCC(c2n[nH]cc2CN(C)CCN(C)C)CC1 [compound 121] | 38 |
| CCOCC1(COCC)CCC(c2nn(C)cc2CN(C)CCNC)CC1 [compound 122] | 21.1 |
| CCOCC1(COCC)CCC(c2n[nH]cc2CN(C)CCN)CC1 [compound 123] | 4.28 |
| CCOCC1(COCC)CCC(c2nn(C)cc2CN(C)CCN)CC1 [compound 124] | 13.7 |
| CNCCN(C)Cc1c[nH]nc1C1CCC2(CC1)CC(C)(C)OC2=O (centres unmarked) [compound 125] | 10.7 |
| CNCCN(C)Cc1c[nH]nc1[C@H]1CC[C@@]2(CC1)COC(C)(C)C2 [compound 126, N1-((3-((5r,8r)-3,3-dimethyl-2-oxaspiro[4.5]decan-8-yl)-1H-pyrazol-4-yl)methyl)-N1,N2-dimethylethane-1,2-diamine] | 14.3 |
